Results on 18 compounds are retold here after patent publication US9867826B2, “Heterocycles as modulators of kinase activity” (Merck Patent GmbH, priority 2013, dated 2018).

The target in one assay is P70S6K (T412E mutant) (Homo sapiens (Human), UniProt P23443, T412E). Nature of the assay: P70S6K enzyme assay. The assay is classed as biochemical. The note with it: 24 μM ATP. How it is done:
P70S6K inhibitor compounds were diluted and plated in 96 well plates. A reaction mixture including the following components was then added to the compound plate to initiate the enzyme reaction; P70S6K (3 nM, T412E mutant, Millipore) was mixed with 24 μM ATP in an assay buffer containing 100 mM Hepes (pH 7.5), 5 mM MgCl2, 1 mM DTT, 0.015% Brij and 1 μM of the substrate peptide FITC-AHA-AKRRRLSSLRA-OH (derived from the S6 ribosomal protein sequence, FITC=fluorescein isothiocyanate, AHA=6-aminohexanoic acid). The reaction was incubated for 90 min at 25° C., before the addition of 10 mM EDTA to stop the reaction. The proportion of substrate and product (phosphorylated) peptide was analysed on a Caliper Life Sciences Lab Chip 3000, using a pressure of −1.4 psi, and upstream and downstream voltages of −3000 and −700 respectively. Product peaks were resolved before substrate peaks on the resulting chromatograms.

In another assay the target is His-AKT (Full Length) (Homo sapiens (Human), UniProt P31749). Nature of the assay: AKT enzyme assay. The assay is classed as biochemical. The note with it: 160 uM ATP. How it is done:
A TTP Mosquito liquid handling instrument was used to place 125 nl of the appropriate concentration of inhibitor in 100% DMSO (for a dose response curve calculation) into each well of a 384-well plate. To this reaction components were added to a final volume of 12.5 μl: • 0.1 ng/μl His-AKT (Full Length), (Invitrogen, Part # P2999, Lot #641228C). • 160 uM ATP (Fluka, 02055) • 1 mM DTT (Sigma, D0632) • 1 mM MgCl2 (Sigma, M1028) • 1 μM substrate peptide (sequence FITC-AHA-GRPRTSSFAEG-NH2), synthesized by Tufts Peptide Synthesis service. • 100 mM HEPES pH 7.5 (Calbiochem, 391338) • 0.015% Brij-35 (Sigma, B4184)
The reaction was incubated for 90 min at 25 C., and then stopped by the addition of 70 μl of Stop buffer (100 mM HEPES pH 7.5, 0.015% Brij-35, 10 mM EDTA (Sigma, E7889)).
The plate was read on a Caliper LC 3000 in an Off-Chip mobility shift assay format, using the following parameters for a 12-sipper chip: screening pressure −2.3 psi, upstream voltage −500, and downstream voltage −3000. These conditions caused unphosphorylated substrate and phosphorylated product peptide to resolve as separate peaks allowing direct measurement of percentage of conversion of substrate to product.
The percent conversion was plotted against concentration of inhibitor to produce a sigmoidal dose response curve, from which an IC50 was calculated.

Sequence of P70S6K (T412E mutant) (P23443 whole entry T412E): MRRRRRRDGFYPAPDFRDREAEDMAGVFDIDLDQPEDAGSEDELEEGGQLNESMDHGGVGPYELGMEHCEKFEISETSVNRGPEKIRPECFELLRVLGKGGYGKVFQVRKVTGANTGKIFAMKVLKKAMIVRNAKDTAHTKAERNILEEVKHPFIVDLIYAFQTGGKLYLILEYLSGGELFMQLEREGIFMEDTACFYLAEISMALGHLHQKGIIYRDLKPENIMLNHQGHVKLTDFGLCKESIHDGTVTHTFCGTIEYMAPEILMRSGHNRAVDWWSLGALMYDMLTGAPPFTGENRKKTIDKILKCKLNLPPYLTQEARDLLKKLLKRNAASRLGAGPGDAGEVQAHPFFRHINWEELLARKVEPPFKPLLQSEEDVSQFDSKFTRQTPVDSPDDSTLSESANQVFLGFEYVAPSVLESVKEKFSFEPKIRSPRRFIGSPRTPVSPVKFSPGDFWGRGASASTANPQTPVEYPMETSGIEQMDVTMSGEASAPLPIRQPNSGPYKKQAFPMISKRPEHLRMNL
Sequence of His-AKT (Full Length) (P31749 whole entry): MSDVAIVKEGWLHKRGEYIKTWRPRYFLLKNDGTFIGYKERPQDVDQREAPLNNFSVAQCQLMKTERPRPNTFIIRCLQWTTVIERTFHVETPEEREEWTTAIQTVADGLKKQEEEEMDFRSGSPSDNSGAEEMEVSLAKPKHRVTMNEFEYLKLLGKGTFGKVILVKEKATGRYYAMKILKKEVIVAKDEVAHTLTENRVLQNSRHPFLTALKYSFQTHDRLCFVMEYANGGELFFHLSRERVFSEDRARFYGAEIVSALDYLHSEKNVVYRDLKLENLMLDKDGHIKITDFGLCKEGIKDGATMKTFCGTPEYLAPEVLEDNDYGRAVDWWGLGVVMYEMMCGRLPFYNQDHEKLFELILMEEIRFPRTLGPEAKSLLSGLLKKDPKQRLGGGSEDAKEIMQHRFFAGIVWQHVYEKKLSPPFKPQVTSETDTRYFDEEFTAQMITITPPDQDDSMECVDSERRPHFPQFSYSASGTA

Turning to `N#Cc1c(N)ncnc1N1CC[C@@H](c2nc(-c3ccc(F)c(C(F)(F)F)c3)cn2CCN2CCC2)[C@@H](F)C1` (racemic) [Compound 1, 4-Amino-6-{3,4-cis-4-[1-(2-azetidin-1-yl-ethyl)-4-(4-fluoro-3-trifluoromethyl-phenyl)-1H-imidazol-2-yl]-3-fluoro-piperidin-1-yl}-pyrimidine-5-carbonitrile], the IC50 against P70S6K (T412E mutant) and at His-AKT (Full Length) was less than 1 nM each time.
As to `NC(=O)c1c(N)ncnc1N1CC[C@@H](c2nc(-c3ccc(F)c(C(F)(F)F)c3)cn2CCN2CCC2)[C@@H](F)C1` (racemic) [Compound 2, 4-Amino-6-{3,4-cis-4-{1-(2-azetidin-1-yl-ethyl)-4-(4-fluoro-3-trifluoromethyl-phenyl)-1H-imidazol-2-yl}-3-fluoro-piperidin-1-yl}-pyrimidine-5-carboxamide], the IC50 on P70S6K (T412E mutant) and against His-AKT (Full Length) was less than 1 nM throughout.
For the compound `C[C@H]1CN(c2ncnc(N)c2C#N)CC[C@H]1c1nc(-c2ccc(F)c(C(F)(F)F)c2)cn1CCN1CCC1` (racemic) [Compound 5, 4-Amino-6-{3,4-cis-4-[1-(2-azetidin-1-yl-ethyl)-4-(4-fluoro-3-trifluoromethyl-phenyl)-1H-imidazol-2-yl]-3-methyl-piperidin-1-yl}-pyrimidine-5-carbonitrile], the IC50 against P70S6K (T412E mutant) was 1 to 10 nM; at His-AKT (Full Length), greater than 10 nM.
`C[C@H]1CN(c2ncnc(N)c2C(N)=O)CC[C@H]1c1nc(-c2ccc(F)c(C(F)(F)F)c2)cn1CCN1CCC1` (racemic) [Compound 6, 4-Amino-6-{3,4-cis-4-[1-(2-azetidin-1-yl-ethyl)-4-(4-fluoro-3-trifluoromethyl-phenyl)-1H-imidazol-2-yl]-3-methyl-piperidin-1-yl}-pyrimidine-5-carboxamide]: the IC50 against P70S6K (T412E mutant) and against His-AKT (Full Length) was greater than 10 nM each time.
For the compound `N#Cc1c(N)ncnc1N1CC[C@H](c2nc(-c3ccc(F)c(C(F)(F)F)c3)cn2CCN2CCC2)[C@@H](F)C1` (racemic) [Compound 7, 4-amino-6-{3,4-trans-4-[1-(2-azetidin-1-yl-ethyl)-4-(4-fluoro-3-trifluoromethyl-phenyl)-1H-imidazol-2-yl]-3-fluoro-piperidin-1-yl}-pyrimidine-5-carbonitrile], the values for the IC50 against P70S6K (T412E mutant) and on His-AKT (Full Length) were 1 to 10 nM and greater than 10 nM, respectively.
The matching figures for `NC(=O)c1c(N)ncnc1N1CC[C@@H](c2nc(-c3ccc(F)c(C(F)(F)F)c3)cn2CCN2CCC2)[C@H](F)C1` (racemic) [Compound 8, 4-Amino-6-{3,4-trans-4-[1-(2-azetidin-1-yl-ethyl)-4-(4-fluoro-3-trifluoromethyl-phenyl)-1H-imidazol-2-yl]-3-fluoro-piperidin-1-yl}-pyrimidine-5-carboxamide]: 1 to 10 nM and greater than 10 nM.
`Cc1cc(-c2cn(CCN(C)C)c([C@@H]3CCN(c4ncnc(N)c4C#N)C[C@@H]3F)n2)ccc1F` (racemic) [Compound 9]: the IC50 against P70S6K (T412E mutant) and on His-AKT (Full Length) was 1 to 10 nM throughout.
As to `Nc1ncnc(N2CC[C@@H](c3nc(-c4ccc(F)c(C(F)(F)F)c4)cn3CCN3CCC3)[C@@H](F)C2)c1Cl` (racemic) [Compound 10, 6-{3,4-cis-4-[1-(2-Azetidin-1-yl-ethyl)-4-(4-fluoro-3-trifluoromethyl-phenyl)-1H-imidazol-2-yl]-3-fluoro-piperidin-1-yl}-5-chloro-pyrimidin-4-ylamine], the half-maximal inhibitory concentration (IC50) against P70S6K (T412E mutant) and against His-AKT (Full Length) was less than 1 nM each time.
In the case of `Nc1ncnc(N2CC[C@@H](c3nc(-c4ccc(F)c(C(F)(F)F)c4)cn3CCN3CCC3)[C@H](F)C2)c1Cl` (racemic) [Compound 11, 6-{3,4-trans-4-[1-(2-Azetidin-1-yl-ethyl)-4-(4-fluoro-3-trifluoromethyl-phenyl)-1H-imidazol-2-yl]-3-fluoro-piperidin-1-yl}-5-chloro-pyrimidin-4-ylamine], the IC50 against P70S6K (T412E mutant) and at His-AKT (Full Length) was 1 to 10 nM throughout.
Take `Cc1cc(-c2cn(CCN(C)C)c([C@H]3CCN(c4ncnc(N)c4Cl)C[C@H]3F)n2)ccc1F` (racemic) [Compound 12, 5-chloro-6-{3,4-cis-4-[1-(2-dimethylamino-ethyl)-4-(4-fluoro-3-methyl-phenyl)-1H-imidazol-2-yl]-3-fluoro-piperidin-1-yl}-pyrimidin-4-ylamine]: the IC50 against P70S6K (T412E mutant) and against His-AKT (Full Length) was 1 to 10 nM throughout.
In the case of `CCc1c(N)ncnc1N1CC[C@@H](c2nc(-c3ccc(F)c(C(F)(F)F)c3)cn2CCN2CCC2)[C@@H](F)C1` (racemic) [Compound 13, 6-{3,4-cis-4-[1-(2-Azetidin-1-yl-ethyl)-4-(4-fluoro-3-trifluoromethyl-phenyl)-1H-imidazol-2-yl]-3-fluoro-piperidin-1-yl}-5-ethyl-pyrimidin-4-ylamine], the IC50 on P70S6K (T412E mutant) and on His-AKT (Full Length) was 1 to 10 nM each time.
For `CN(C)CCn1cc(-c2ccc(F)c(C(F)(F)F)c2)nc1[C@@H]1CCN(c2ncnc(N)c2C#N)C[C@@H]1F` (racemic) [Compound 14, 4-Amino-6-{3,4-cis-4-[1-(2-dimethylamino-ethyl)-4-(4-fluoro-3-trifluoromethyl-phenyl)-1H-imidazol-2-yl]-3-fluoro-piperidin-1-yl}-pyrimidine-5-carbonitrile], the IC50 against P70S6K (T412E mutant) and on His-AKT (Full Length) was 1 to 10 nM throughout.
Take `CN(C)CCn1cc(-c2ccc(F)c(C(F)(F)F)c2)nc1[C@@H]1CCN(c2ncnc(N)c2C(N)=O)C[C@@H]1F` (racemic) [Compound 15]: the results for the IC50 against P70S6K (T412E mutant) and against His-AKT (Full Length) were 1 to 10 nM and greater than 10 nM, respectively.
Taken in the same sequence, the figures for `CCOc1c(N)ncnc1N1CC[C@@H](c2nc(-c3ccc(F)c(C(F)(F)F)c3)cn2CCN2CCC2)[C@@H](F)C1` (racemic) [Compound 16, 6-{3,4-cis-4-[1-(2-Azetidin-1-yl-ethyl)-4-(4-fluoro-3-trifluoromethyl-phenyl)-1H-imidazol-2-yl]-3-fluoro-piperidin-1-yl}-5-ethoxy-pyrimidin-4-ylamine] were 1 to 10 nM and 1 to 10 nM.
Taken in the same sequence, the figures for `CC(C)c1c(N)ncnc1N1CC[C@@H](c2nc(-c3ccc(F)c(C(F)(F)F)c3)cn2CCN(C)C)[C@@H](F)C1` (racemic) [Compound 17, 6-{cis-4-[1-(2-Dimethylamino-ethyl)-4-(4-fluoro-3-trifluoromethyl-phenyl)-1H-imidazol-2-yl]-3-fluoro-piperidin-1-yl}-5-isopropyl-pyrimidin-4-ylamine] were 1 to 10 nM and greater than 10 nM.
Taken in the same sequence, the figures for `Cc1cc(-c2cn(CCN3CCC3)c([C@@H]3CCN(c4ncnc(N)c4C#N)C[C@@H]3F)n2)ccc1F` (racemic) [Compound 18, 4-Amino-6-{cis-4-[1-(2-azetidin-1-yl-ethyl)-4-(4-fluoro-3-methyl-phenyl)-1H-imidazol-2-yl]-3-fluoro-piperidin-1-yl}-pyrimidine-5-carbonitrile] were 1 to 10 nM and 1 to 10 nM.
Regarding `Cc1cc(-c2cn(CCN3CCC3)c([C@@H]3CCN(c4ncnc(N)c4C(C)C)C[C@@H]3F)n2)ccc1F` (racemic) [Compound 24, 6-{cis-4-[1-(2-Azetidin-1-yl-ethyl)-4-(4-fluoro-3-methyl-phenyl)-1H-imidazol-2-yl]-3-fluoro-piperidin-1-yl}-5-isopropyl-pyrimidin-4-ylamine], the IC50 on P70S6K (T412E mutant) and against His-AKT (Full Length) was 1 to 10 nM in each case.
Consider `CN(C)CCn1cc(-c2ccc(F)c(C(F)(F)F)c2)nc1[C@@H]1CCN(c2ncnc(N)c2Cl)C[C@@H]1F` (racemic) [Compound 25], for which the IC50 against P70S6K (T412E mutant) and against His-AKT (Full Length) was 1 to 10 nM in each case.

As usually defined, the IC50 is the concentration needed to halve the response being measured. High values mean a need for much substance, low ones inhibition by little substance.
